{"source": "patent US12018267B2", "about": "“Plants having increased tolerance to herbicides” (BASF SE, priority 2015, dated 2024)", "system": "Rice M4 CESA1 and CESA3 mutants", "assay": "Greenhouse foliar application, crop injury on tilled Rice M4 generation cellulose synthase mutants (Table E10-2)", "assay_type": "in vivo, Oryza sativa", "excerpt": "Oryza sativa M2 Volano is a cellulose biosynthesis inhibitor susceptible rice risotto population that was subjected to sodium azide seed mutagenesis but was not tilled nor selected for CESA mutations. O. sativa Volano-M3-CESA1 and CESA3 mutants were selected from a subpopulation of O. sativa M2 Volano by sequencing CESA gene sequences in M2 plants and maintaining (producing seed through selfing) those individuals containing key mutations in these genes. The tolerance of the M3 CESA1 and CESA3 mutants was assessed using 6-(1-fluorocyclopentyl)-N2-(2,3,5,6-tetrafluorophenyl)-1,3,5-triazine-2,4-diamine, together with 1.0% DASH® EC adjuvant (BASF). The tolerance of M4 CESA1 and CESA3 mutants was assessed using 6-cyclopentyl-N4-(2,3,4,5,6-pentafluorophenyl)-1,3,5-triazine-2,4-diamine, together with 1.0% DASH® EC adjuvant (BASF).\nM3 seed, which were harvested from tilled and selected individuals containing mutations in the CESA1 and CESA3 genes, were grown in the greenhouse under natural light conditions supplemented with 400 W sodium halide lamps under a 16 hr day length. Day/night temperatures were 26 and 20° C., respectively. The number of M3 plants from each line varied between 2 and 16, depending on seed availability and germination. A non-selective CBI, azine 6-(1-fluorocyclopentyl)-N2-(2,3,5,6-tetrafluorophenyl)-1,3,5-triazine-2,4-diamine, formulated with 1.0% DASH in a water volume of 375 L/ha was applied early post-emergent (one to two leaf stage) at a rate of 250 g ai/ha to M3 CESA1 and CESA3 mutant rice plants growing in soil in the greenhouse. Only plants originating from lines having more than four seeds were subjected to herbicide treatment. CESA mutant lines with four or fewer seeds were selfed for an additional generation and then tested at the M4 generation with 6-cyclopentyl-N4-(2,3,4,5,6-pentafluorophenyl)-1,3,5-triazine-2,4-diamine. M4 plants were grown under similar conditions as M3 plants and treated with 250 g ai/ha or 500 g ai/ha of 6-cyclopentyl-N4-(2,3,4,5,6-pentafluorophenyl)-1,3,5-triazine-2,4-diamine. Previous kill curve greenhouse tests had identified that a rate of 250 g ai/ha of 6-(1-fluorocyclopentyl)-N2-(2,3,5,6-tetrafluorophenyl)-1,3,5-triazine-2,4-diamine and a rate of 250 g ai/ha 6-cyclopentyl-N4-(2,3,4,5,6-pentafluorophenyl)-1,3,5-triazine-2,4-diamine, both with 1.0% DASH, were sufficient doses to kill O. sativa M2 Volano check plants. […] Plants were assessed for crop injury, using a scale from 0% injury to 100% injury, at 11 and 21 days after treatment (DAT) for M3 plants applied with 6-(1-fluorocyclopentyl)-N2-(2,3,5,6-tetrafluorophenyl)-1,3,5-triazine-2,4-diamine and 36 DAT for M4 plants applied with 6-cyclopentyl-N4-(2,3,4,5,6-pentafluorophenyl)-1,3,5-triazine-2,4-diamine. Plants without any symptoms were recorded as “0%” injury. Increasing levels of reduced leaf mass and reduced stalk stiffness, with respect to the untreated control plants, were recorded in the range of “1 to 49%” injury. Increasing levels of leaf abnormalities and leaf necrosis, along with increased levels of lodging, relative to the untreated control plants, were recorded in the range of “50 to 85%” injury. Dead or dying plants with necrosis of the apex and severe lodging were recorded between “86-100%”. Data on individual plants was assessed and recorded due to the low number of individuals per line and the fact that the CESA mutations in the M2 generation were heterozygous and therefore segregating at the M3 and M4 generations. […]", "key": {"[1]": {"conditions": "Rice M4 OsCesA1 S827N (SEQ ID 51), parental plant Hom, 250 g ai/ha"}, "[2]": {"conditions": "Rice M4 OsCesA1 T952I (SEQ ID 51), parental plant Het, 500 g ai/ha"}}}
{"molecule": "Nc1nc(Nc2c(F)c(F)c(F)c(F)c2F)nc(C2CCCC2)n1", "note": "[6-cyclopentyl-N4-(2,3,4,5,6-pentafluorophenyl)-1,3,5-triazine-2,4-diamine]", "values": [{"measurement": "Crop injury assessment (%) at 23 DAT", "setting": "[1]", "result": 0, "unit": "%"}, {"measurement": "Crop injury assessment (%) at 36 DAT", "setting": "[1]", "result": 0, "unit": "%"}, {"measurement": "Crop injury assessment (%) at 23 DAT", "setting": "Rice M4 OsCesA1 T952I (SEQ ID 51), parental plant Het, 250 g ai/ha", "result": 0, "unit": "%"}, {"measurement": "Crop injury assessment (%) at 23 DAT", "setting": "[2]", "result": 10, "unit": "%"}, {"measurement": "Crop injury assessment (%) at 36 DAT", "setting": "[2]", "result": 10, "unit": "%"}]}
